The structures appear in SMILES notation.

This note sets out measurements from patent US10730889B2, “Amido spirocyclic amide and sulfonamide derivatives” (Forma TM, LLC, priority 2012, dated 2020).

The subject of the first assay is A2780 cells. As to the kind of experiment: In-vitro cell proliferation assay (SRB, 72 hours). The class given is cell-based. The settings on record: A2780 cells, 72 hours, SRB; read-out: Cell Proliferation (IC50).
Protocol: Assay 2: In-Vitro Cell Proliferation Assay
Assay Method. […] The compounds were then further diluted to 10× final concentration in culture media, whereupon 20 μL of each dilution was added to the plated cells with controls (e.g. DMSO and blank) to make a final volume of 200 μL. The final DMSO concentration in each well was 0.1%. The plates were then incubated for 72 hours at 37° C. in a 5% CO2 incubator. The number of viable cells was then assessed using sulforhodamine B (SRB) assay. Cells were fixed at 4° C. for 1 hour with the addition of 50 μL 30% trichloroacetic acid (TCA) to make a final concentration of 6% TCA. The plates were washed four times with H2O and allowed to dry for at least 1 hour, whereupon 100 μL of a 4% SRB in 1% acetic acid solution was added to each well and incubated at room temperature for at least 30 min. The plates were then washed three times with 1% acetic acid, dried, and treated with 100 μL of 10 mM Tris-Base solution. The plates were then read in a microplate reader at an absorbance of 570 nm. Background was generated on a separate plate with media only.
Determination of IC50 Values. First, the signals from the background plate were averaged, then the background was subtracted from the test plates.
On to `CC1(C)CC1C(=O)N1CCC2(CC1)CC2CNC(=O)c1cc2cnccc2[nH]1` (stereo not drawn) [Example 364, N-[[6-(2,2-dimethylcyclopropanecarbonyl)-6-azaspiro[2.5]octan-2-yl]methyl]-1H-pyrrolo[3,2-c]pyridine-2-carboxamide], for which the IC50 turned out to be 110 nM.

Still in this assay, the particulars now being: Homo sapiens, A2780, 72 h, A2780 cells, 72 hours, SRB; read-out: Cell Proliferation (IC50).
`CC(C)(C)NC(=O)N1CCC2(CC1)CC2CNC(=O)c1cc2ccncc2o1` (stereo not drawn) [Example 182, N-[[6-(tert-butylcarbamoyl)-6-azaspiro[2.5]octan-2-yl]methyl]furo[2,3-c]pyndine-2-carboxamide]: the IC50 is 2000 nM.
Same read-out and setting: the same measure for `Cc1ccc2nc(C(=O)N3CCC4(CC3)CC4CNC(=O)c3cc4ccncc4o3)[nH]c2c1` (stereo not drawn) [Example 310, N-[[6-(6-methyl-1H-benzimidazole-2-carbonyl)-6-azaspiro[2.5]octan-2-yl]methyl]furo[2,3-c]pyridine-2-carboxamide]: 30.8 nM.
`Cc1cnn(C)c1C(=O)N1CCC2(CC1)CC2CNC(=O)c1cc2ccncc2o1` (stereo not drawn) [Example 299, N-[[6-(2,4-dimethylpyrazole-3-carbonyl)-6-azaspiro[2.5]octan-2-yl]methyl]furo[2,3-c]pyridine-2-carboxamide]: the IC50 worked out at 249 nM.
In the case of `O=C(NCC1CC12CCN(C(=O)CN1CCCC1)CC2)c1cc2ccncc2o1` (stereo not drawn) [Example 33, N-[[6-(2-pyrrolidin-1-ylacetyl)-6-azaspiro[2.5]octan-2-yl]methyl]furo[2,3-c]pyridine-2-carboxamide], the IC50 worked out at 2000 nM.
As to `Cc1nccn1Cc1ccc(C(=O)N2CCC3(CC2)CC3CNC(=O)c2cc3ccncc3o2)cc1` (stereo not drawn) [Example 246, N-[[6-[4-[(2-methylimidazol-1-yl)methyl]benzoyl]-6-azaspiro[2.5]octan-2-yl]methyl]furo[2,3-c]pyridine-2-carboxamide], the IC50 was 13.8 nM.
Same read-out and setting: next, `O=C(NCC1CC12CCN(C(=O)NC13CC4CC(CC(C4)C1)C3)CC2)c1cc2ccncc2o1` (stereo not drawn) [Example 169, N-[[6-(1-adamantylcarbamoyl)-6-azaspiro[2.5]octan-2-yl]methyl]furo[2,3-c]pyridine-2-carboxamide]: 27.8 nM; `O=C(NCC1CC12CCN(C(=O)NCc1cccc(F)c1)CC2)c1cc2ccncc2o1` (stereo not drawn) [Example 166, N-[[6-[(3-fluorophenyl)methylcarbamoyl]-6-azaspiro[2.5]octan-2-yl]methyl]furo[2,3-c]pyridine-2-carboxamide]: 2000 nM.
As for `O=C(Cc1cccc(C(F)(F)F)c1)N1CCC2(CC1)CC2CNC(=O)N1Cc2ccncc2C1` (stereo not drawn) [Example 202, N-[[6-[2-[3-(trifluoromethyl]phenyl]acetyl]-6-azaspiro[2.5]octan-2-yl]methyl]-1,3-dihydropyrrolo[3,4-c]pyridine-2-carboxamide], the IC50 is 28.2 nM.
The same measure, in the same setting: next, `Cc1ccnc(C(=O)N2CCC3(CC2)CC3CNC(=O)c2cc3ccncc3o2)c1` (stereo not drawn) [Example 235, N-[[6-(4-methylpyridine-2-carbonyl)-6-azaspiro[2.5]octan-2-yl]methyl]furo[2,3-c]pyridine-2-carboxamide]: 1560 nM; `Cn1cc(C(=O)N2CCC3(CC2)CC3CNC(=O)c2cc3ccncc3o2)cn1` (stereo not drawn) [Example 114, N-[[6-(1-methylpyrazole-4-carbonyl)-6-azaspiro[2.5]octan-2-yl]methyl]furo[2,3-c]pyridine-2-carboxamide]: 2000 nM.
Consider `CC1(CC(=O)N2CCC3(CC2)CC3CNC(=O)c2cc3cnccc3[nH]2)COC1` (stereo not drawn) [Example 150, N-([6-[2-(3-methyloxetan-3-yl)acetyl]-6-azaspiro[2.5]octan-1-yl]methyl)-1H-pyrrolo[3,2-c]pyridine-2-carboxamide], for which the IC50 is 265 nM.
With `CC1(C)CC1C(=O)N1CCC2(CC1)CC2CNC(=O)N1Cc2ccncc2C1` (stereo not drawn) [Example 389, N-[[6-(2,2-dimethylcyclopropanecarbonyl)-6-azaspiro[2.5]octan-2-yl]methyl]-1,3-dihydropyrrolo[3,4-c]pyridine-2-carboxamide], the IC50 was determined as 0.575 nM.
`CC(C)(C)OC(=O)N1CCC2(CC1)CC2CNC(=O)c1ccc2nccn2n1` (stereo not drawn) [Example 402, tert-butyl 2-[(imidazo[1,2-b]pyridazine-6-carbonylamino)methyl]-6-azaspiro[2.5]octane-6-carboxylate]: the IC50 worked out at 2000 nM.
Regarding `O=C(NCC1CC12CCN(C(=O)c1cnoc1C1CC1)CC2)c1cc2ccncc2o1` (stereo not drawn) [Example 328, N-[[6-(5-cyclopropylisoxazole-4-carbonyl)-6-azaspiro[2.5]octan-2-yl]methyl]furo[2,3-c]pyridine-2-carboxamide], the IC50 is 83.4 nM.
Take `CN1CCN(Cc2ccc(C(=O)N3CCC4(CC3)CC4CNC(=O)N3Cc4ccncc4C3)cc2)CC1` (stereo not drawn) [Example 346, N-[[6-[4-[(4-methylpiperazin-1-yl)methyl]benzoyl]-6-azaspiro[2.5]octan-2-yl]methyl]-1,3-dihydropyrrolo[3,4-c]pyridine-2-carboxamide]: the IC50 is 6.01 nM.
The same measure, in the same setting: next, `CN1CCN(c2ccc(C(=O)N3CCC4(CC3)CC4CNC(=O)N3Cc4ccncc4C3)cc2)CC1` (stereo not drawn) [Example 362, N-[[6-[4-(4-methylpiperazin-1-yl)benzoyl]-6-azaspiro[2.5]octan-2-yl]methyl]-1,3-dihydropyrrolo[3,4-c]pyridine-2-carboxamide]: 1.9 nM; `CCn1ncc(C(=O)N2CCC3(CC2)CC3CNC(=O)c2cc3ccncc3o2)c1C` (stereo not drawn) [Example 124, N-[[6-(1-ethyl-5-methyl-pyrazole-4-carbonyl)-6-azaspiro[2.5]octan-2-yl]methyl]furo[2,3-c]pyridine-2-carboxamide]: 124 nM.
Still for that read-out and setting: the same measure for `CC(=O)N1CCCC1C(=O)N1CCC2(CC1)CC2CNC(=O)c1cc2ccncc2o1` (stereo not drawn) [Example 68, N-[[6-(1-acetylpyrrolidine-2-carbonyl)-6-azaspiro[2.5]octan-2-yl]methyl]furo[2,3-c]pyridine-2-carboxamide]: 414 nM; for `O=C(NCC1CC12CCN(C(=O)c1cc(C3CC3)n[nH]1)CC2)c1cc2cnccc2[nH]1` (stereo not drawn) [Example 368, N-[[6-(3-cyclopropyl-1H-pyrazole-5-carbonyl)-6-azaspiro[2.5]octan-2-yl]methyl]-1H-pyrrolo[3,2-c]pyridine-2-carboxamide]: 991 nM; for `Cn1cc(-c2ccno2)c(C(=O)N2CCC3(CC2)CC3CNC(=O)N2Cc3ccncc3C2)n1` (stereo not drawn) [Example 354, N-[[6-(4-isoxazol-5-yl-1-methyl-pyrazole-3-carbonyl)-6-azaspiro[2.5]octan-2-yl]methyl]-1,3-dihydropyrrolo[3,4-c]pyridine-2-carboxamide]: 7.07 nM.
As to `CC(=O)Nc1ccc(C(=O)N2CCC3(CC2)CC3CNC(=O)c2cc3ccncc3o2)cc1` (stereo not drawn) [Example 72, N-[[6-(4-acetamidobenzoyl)-6-azaspiro[2.5]octan-2-yl]methyl]furo[2,3-c]pyridine-2-carboxamide], the IC50 turned out to be 48.1 nM.
Same read-out and setting: next, `N#Cc1ccc(C(=O)N2CCC3(CC2)CC3CNC(=O)c2cc3ccncc3o2)cn1` (stereo not drawn) [Example 127, N-[[6-(6-cyanopyridine-3-carbonyl)-6-azaspiro[2.5]octan-2-yl]methyl]furo[2,3-c]pyridine-2-carboxamide]: 2000 nM; `O=C(NCC1CC12CCN(C(=O)c1cnccn1)CC2)c1cc2ccncc2o1` (stereo not drawn) [Example 112, N-[[6-(pyrazine-2-carbonyl)-6-azaspiro[2.5]octan-2-yl]methyl]furo[2,3-c]pyridine-2-carboxamide]: 2000 nM; `O=C(NCC1CC12CCN(C(=O)c1cn[nH]c1)CC2)c1cc2ccncc2o1` (stereo not drawn) [Example 141, N-[[6-(1H-pyrazole-4-carbonyl)-6-azaspiro[2.5]octan-2-yl]methyl]furo[2,3-c]pyridine-2-carboxamide]: 2000 nM.
On the same count and under the same terms, the same measure for `CN1CCN(c2ccc(C(=O)N3CCC4(CC3)CC4CNC(=O)c3cc4ccncc4o3)cc2)CC1` (stereo not drawn) [Example 339, N-[[6-[4-(4-Methylpiperazin-1-yl)benzoyl]-6-azaspiro[2.5]octan-2-yl]methyl]furo[2,3-c]pyridine-2-carboxamide]: 1.9 nM; for `NC(=O)N1CCCC1C(=O)N1CCC2(CC1)CC2CNC(=O)c1cc2ccncc2o1` (stereo not drawn) [Example 64, N-[[6-(1-carbamoylpyrrolidine-2-carbonyl)-6-azaspiro[2.5]octan-2-yl]methyl]furo[2,3-c]pyridine-2-carboxamide]: 2000 nM; for `O=C(NCC1CC12CCN(C(=O)c1ncc[nH]1)CC2)c1cc2ccncc2o1` (stereo not drawn) [Example 338, N-[[6-(1H-imidazole-2-carbonyl)-6-azaspiro[2.5]octan-2-yl]methyl]furo[2,3-c]pyridine-2-carboxamide]: 2000 nM.
For `CC(C)(C)OC(=O)N1CCC2(CC1)CC(CNC(=O)c1ccc3nccn3c1)C2` [Example 21, tert-butyl 2-((imidazo[1,2-a]pyridine-6-carboxamido)methyl]-7-azaspiro[3.5]nonane-7-carboxylate], the IC50 is 2000 nM.
Same read-out and setting: the same measure for `O=C(NCC1CC12CCN(C(=O)c1ccnnc1)CC2)c1cc2ccncc2o1` (stereo not drawn) [Example 113, N-[[6-(pyridazine-4-carbonyl)-6-azaspiro[2.5]octan-2-yl]methyl]furo[2,3-c]pyridine-2-carboxamide]: 2000 nM.
Regarding `O=C(NCC1CC12CCN(C(=O)CN1CCCCC1)CC2)c1cc2ccncc2o1` (stereo not drawn) [Example 35, N-[[6-[2-(1-piperidyl)acetyl]-6-azaspiro[2.5]octan-2-yl]methyl]furo[2,3-c]pyridine-2-carboxamide], the IC50 amounted to 2000 nM.
Turning to `Cc1c(C(=O)N2CCC3(CC2)CC3CNC(=O)c2cc3ccncc3o2)cnn1C` (stereo not drawn) [Example 330, N-[[6-(1,5-dmiethylpyrazole-4-carbonyl)-6-azaspiro[2.5]octan-2-yl]methyl]furo[2,3-c]pyridine-2-carboxamide], the IC50 came out at 159 nM.

The assay is the same for the next values; noted with them: Homo sapiens; A2780 cells, 72 hours, SRB; read-out: Cell Proliferation (IC50).
For the compound `O=C(Cc1ncccn1)N1CCC2(CC1)CC2CNC(=O)N1Cc2ccncc2C1` (stereo not drawn) [Example 286, N-[[6-(2-pyrimidin-2-ylacetyl)-6-azaspiro[2.5]octan-2-yl]methyl]-1,3-dihydropyrrolo[3,4-c]pyridine-2-carboxamide], the IC50 was 27 nM.
